Experiment in all cases: biochemical
For assay [1], the target named is T1, human EphB2-His ectodomain - human EphrinB2-Fc ectodomain (EphB2-EphrinB2 tetramer) (Homo sapiens, UniProt P29323+P52799). The following applies: EphrinB2-EphB2 IC50 (Absolute, µM).
The target of assay [2] is T1, human EphB2-His ectodomain - human EphrinB2-Fc ectodomain (EphB2-EphrinB2 tetramer). The conditions noted are these: EphrinB2-EphB2 IC50 (Relative, µM).
Assay [3] has the same target.
The target is the same in assay [4]. The source holds these as a separate data set.

Where a name gives a salt, the structure may show the parent alone. Read-outs that look alike come from different tables or passages of the source.

T1 sequence (P52799 28-229): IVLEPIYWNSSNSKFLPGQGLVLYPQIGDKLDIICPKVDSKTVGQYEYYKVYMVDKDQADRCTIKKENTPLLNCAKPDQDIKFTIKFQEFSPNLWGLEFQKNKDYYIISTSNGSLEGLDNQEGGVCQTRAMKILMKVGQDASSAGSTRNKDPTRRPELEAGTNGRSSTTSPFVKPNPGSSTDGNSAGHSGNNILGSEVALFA
T1 sequence (P29323 19-543): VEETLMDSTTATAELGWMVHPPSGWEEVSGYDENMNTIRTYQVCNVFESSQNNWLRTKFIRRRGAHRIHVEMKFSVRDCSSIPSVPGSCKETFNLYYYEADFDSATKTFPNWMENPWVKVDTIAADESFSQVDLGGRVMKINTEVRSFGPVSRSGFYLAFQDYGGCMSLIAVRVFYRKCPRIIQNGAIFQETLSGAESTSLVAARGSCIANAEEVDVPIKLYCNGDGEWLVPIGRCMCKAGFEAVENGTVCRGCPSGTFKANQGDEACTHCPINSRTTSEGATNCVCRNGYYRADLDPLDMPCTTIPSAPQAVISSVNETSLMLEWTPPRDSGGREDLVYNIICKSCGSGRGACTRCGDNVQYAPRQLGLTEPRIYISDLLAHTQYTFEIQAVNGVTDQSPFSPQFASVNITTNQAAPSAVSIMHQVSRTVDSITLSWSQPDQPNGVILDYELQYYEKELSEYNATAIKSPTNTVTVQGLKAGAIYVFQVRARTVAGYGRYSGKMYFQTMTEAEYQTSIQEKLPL

In turn, `Cc1ccc2c(CN3CCOCC3)cc(Br)c(O)c2n1` [2-MeA20, 7-bromo-2-methyl-5-(morpholinomethyl)quinolin-8-ol] showed an IC50 in assay [1] greater than 3.2 µM.
As for `Cc1ccc2c(CN3CCN(c4ccc(Br)cc4)CC3)ccc(O)c2n1` [2-MeQPB4 . 2 HCl, 5-((4-(4-bromophenyl)piperazin-1-ium-1-yl)methyl)-8-hydroxy-2-methylquinolin-1-ium chloride], the IC50 in assay [1] and in assay [2] was greater than 1.6 µM each time.
Take `Cc1ccc2c(CN3CCN(c4ccc(Br)cc4)CC3)ccc(O)c2n1` [2-MeQPB4, 5-((4-(4-bromophenyl)piperazin-1-yl)methyl)-2-methylquinolin-8-ol]: the IC50 in assay [1] and in assay [2] was greater than 3.2 µM each time.
For `OCc1ccc2c(CN3CCOCC3)ccc(O)c2n1` [2OH-A19, 2-(hydroxymethyl)-5-(morpholinomethyl)quinolin-8-ol], the IC50 in assay [1] and in assay [2] was greater than 3.2 µM in each case.
For `OCc1ccc2c(CN3CCOCC3)cc(Br)c(O)c2n1` [2OH-A20, 7-bromo-2-(hydroxymethyl)-5-(morpholinomethyl)quinolin-8-ol], in assay [1], the IC50 is greater than 3.2 µM.
On the same count and under the same terms, in the case of `COc1ccccc1N1CCN(Cc2cc(Br)c(O)c3ncccc23)CC1` [3511-0013, 7-bromo-5-((4-(2-methoxyphenyl)piperazin-1-yl)methyl)quinolin-8-ol] it was greater than 1.6 µM; in that of `COc1ccccc1N1CCN(Cc2ccc(O)c3ncccc23)CC1` [3511-0013-BF, 5-((4-(2-methoxyphenyl)piperazin-1-yl)methyl)quinolin-8-ol], greater than 3.2 µM.
Same read-out and setting: in the case of `Oc1ccc(CN2CCOCC2)c2cccnc12` [A19 . 2 HCl, 4-((8-hydroxyquinolin-1-ium-5-yl)methyl)morpholin-4-ium chloride] it was greater than 6.4 µM.
On to `O=[N+]([O-])c1cc(CN2CCOCC2)c2cccnc2c1O` [A19-NO2 . 2 HCl, 4-((8-hydroxy-7-nitroquinolin-1-ium-5-yl)methyl)morpholin-4-ium chloride], for which the IC50 in assay [1] and in assay [2] was greater than 1.6 µM in each case.
Turning to `O=[N+]([O-])c1cc(CN2CCOCC2)c2cccnc2c1O` [A19-NO2, 5-(morpholinomethyl)-7-nitroquinolin-8-ol], the IC50 in assay [1] and in assay [2] was greater than 3.2 µM in each case.
Consider `Oc1c(Br)cc(CN2CCOCC2)c2cccnc12` [A20 . 2 HCl, 4-((7-bromo-8-hydroxyquinolin-1-ium-5-yl)methyl)morpholin-4-ium chloride], for which, in assay [1], the IC50 came to 0.78 µM.
For `O=C(Cc1ccccc1)Nc1ccc(N2CCN(Cc3cc(Br)c(O)c4ncccc34)CC2)cc1` [BQPA-PAc, N-(4-(4-((7-bromo-8-hydroxyquinolin-5-yl)methyl)piperazin-1-yl)phenyl)-2-phenylacetamide], the IC50 in assay [1] and in assay [2] was greater than 3.2 µM in each case.
In assay [1], `Oc1c(Br)cc(CN2CCN(Cc3ccc(Br)cc3)CC2)c2cccnc12` [BQPB4-Bn, 7-bromo-5-((4-(4-bromobenzyl)piperazin-1-yl)methyl)quinolin-8-ol] yielded an IC50 greater than 3.2 µM.
`COc1ccc2[nH]cc(C(=O)N3CCOCC3)c2c1` [IM, (5-methoxy-1H-indol-3-yl)(morpholino)methanone]: the IC50 in assay [1] and in assay [2] was greater than 3.2 µM each time.
As to `COc1ccc2[nH]cc(C(=O)N3CCN(c4ccccc4OC)CC3)c2c1` [IMP2, (5-methoxy-1H-indol-3-yl)(4-(2-methoxyphenyl)piperazin-1-yl)methanone], the IC50 in assay [1] and in assay [2] was greater than 1.6 µM throughout.
For `COc1ccc2[nH]cc(C(=O)N3CCN(c4ccc(Br)cc4)CC3)c2c1` [IPB4, (4-(4-bromophenyl)piperazin-1-yl)(5-methoxy-1H-indol-3-yl)methanone], the IC50 in assay [1] and in assay [2] was greater than 1.6 µM in each case.
`CC(=O)Nc1ccc(N2CCN(Cc3ccc(O)c4ncccc34)CC2)cc1` [QPA-Ac, N-(4-(4-((8-hydroxyquinolin-5-yl)methyl)piperazin-1-yl)phenyl)acetamide]: in assay [1], the IC50 is greater than 3.2 µM.
The same measure, in the same setting: the value for `Oc1ccc(CN2CCN(c3ccc(Br)cc3)CC2)c2cccnc12` [QPB4 . 2 HCl, 5-((4-(4-bromophenyl)piperazin-1-ium-1-yl)methyl)-8-hydroxyquinolin-1-ium chloride] was greater than 1.6 µM.
With `Oc1ccc(CN2CCN(Cc3ccc(C(F)(F)F)cc3)CC2)c2cccnc12` [QPCF34-Bn, 5-((4-(4-(trifluoromethyl)benzyl)piperazin-1-yl)methyl)quinolin-8-ol], the IC50 in assay [1] and in assay [2] was greater than 1.6 µM throughout.
Consider `Oc1ccc(CN2CCN(c3ccc(F)cc3F)CC2)c2cccnc12` [QPDF, 5-((4-(2,4-difluorophenyl)piperazin-1-yl)methyl)quinolin-8-ol], for which the IC50 in assay [1] and in assay [2] was greater than 1.6 µM throughout.
Regarding `Oc1ccc(CN2CCN(c3ccc(I)cc3)CC2)c2cccnc12` [QPI4 . 2HCl, 8-hydroxy-5-((4-(4-iodophenyl)piperazin-1-ium-1-yl)methyl)quinolin-1-ium chloride], the IC50 in assay [1] is greater than 1.6 µM.
In assay [1], `Oc1ccc(CN2CCN(c3ccc(Br)cn3)CC2)c2cccnc12` [QPP. 2 HCl, 5-((4-(5-bromopyridin-2-yl)piperazin-1-ium-1-yl)methyl)-8-hydroxyquinolin-1-ium chloride] had an IC50 greater than 3.2 µM.
Take `Oc1ccc(CN2CCN(c3ccccc3)CC2)c2cccnc12` [QPPh . 2HCl, 8-hydroxy-5-((4-phenylpiperazin-1-ium-1-yl)methyl)quinolin-1-ium chloride]: the half-inhibitory concentration (IC50) in assay [1] and in assay [2] was greater than 1.6 µM throughout.
`Oc1ccc(CN2CCN(c3ccccc3)CC2)c2cccnc12` [QPPh, 5-((4-phenylpiperazin-1-yl)methyl)quinolin-8-ol]: in assay [1], the IC50 is greater than 3.2 µM.
In assay [2], `O=S1(=O)CCN(Cc2cc(Br)c(O)c3ncccc23)CC1` [QTM-Br . 2 HCl, 4-((7-bromo-8-hydroxyquinolin-1-ium-5-yl)methyl)thiomorpholin-4-ium 1,1-dioxide chloride] yielded an IC50 of 0.62 µM.
Regarding `O=S1(=O)CCN(Cc2cc(I)c(O)c3ncccc23)CC1` [QTM-I . 2 HCl, 4-((8-hydroxy-7-iodoquinolin-1-ium-5-yl)methyl)thiomorpholin-4-ium 1,1-dioxide chloride], the IC50 in assay [1] is greater than 1.6 µM.
Regarding `O=[N+]([O-])c1cc(CN2CCS(=O)(=O)CC2)c2cccnc2c1O` [QTM-NO2, 4-((8-hydroxy-7-nitroquinolin-5-yl)methyl)thiomorpholine 1,1-dioxide], the IC50 in assay [1] was greater than 3.2 µM.
Molecule `O=C(Oc1cccc2cccnc12)c1ccc(Br)cc1` [compound 1, 8-quinolinyl 4-bromobenzoate] had an IC50 in assay [3] greater than 100 µM.
As for `CN(C(=O)Oc1cccc2cccnc12)c1ccccc1` [compound 2, 8-quinolinyl methyl(phenyl)carbamate], in assay [4], the IC50 was greater than 100 µM.
The same measure, in the same setting: in the case of `CN(C(=O)Oc1c(Cl)cc(Cl)c2cccnc12)c1ccccc1` [compound 3, 5,7-dichloro-8-quinolinyl methyl(phenyl)carbamate] it was greater than 100 µM.
In turn, `CCN(CC)C(=O)Oc1c(Cl)cc(Cl)c2cccnc12` [compound 6, 5,7-dichloro-8-quinolinyl diethylcarbamate] yielded an IC50 in assay [4] greater than 100 µM.
`O=C(Oc1ccc(Cl)c2cccnc12)c1cccc(Br)c1` [compound 7, 5-chloro-8-quinolinyl 3-bromobenzoate] returned an IC50 in assay [3] greater than 100 µM.
Regarding `CCN(CC)C(=O)Oc1c(Br)cc(Cl)c2cccnc12` [compound 7, 7-bromo-5-chloro-8-quinolinyl diethylcarbamate], the IC50 in assay [4] is greater than 100 µM.
`O=C(Oc1ccc(Cl)c2cccnc12)c1cccc(Cl)c1` [compound 8, 5-chloro-8-quinolinyl 3-chlorobenzoate]: the concentration for half-maximal inhibition (IC50) in assay [3] was greater than 100 µM.
`CN(C)C(=O)Oc1c(Br)cc(Cl)c2cccnc12` [compound 8, 7-bromo-5-chloro-8-quinolinyl dimethylcarbamate] had an IC50 in assay [4] greater than 100 µM.
In turn, `O=C(Oc1c(I)cc(Cl)c2cccnc12)N1CCCCC1` [compound 9, 5-chloro-7-iodo-8-quinolinyl 1-piperidinecarboxylate] had an IC50 in assay [4] greater than 100 µM.
Same read-out and setting: in the case of `CCN(CC)C(=O)Oc1c(I)cc(Cl)c2cccnc12` [compound 10, 5-chloro-7-iodo-8-quinolinyl diethylcarbamate] it was greater than 100 µM.
Take `O=C(Oc1ccc(Cl)c2cccnc12)c1ccc(Cl)c(Cl)c1` [compound 10, 5-chloro-8-quinolinyl 3,4-dichlorobenzoate]: the IC50 in assay [3] was greater than 100 µM.
Molecule `COc1ccc(C(=O)Oc2cccc3cccnc23)cc1Cl` [compound 13, 8-quinolinyl 3-chloro-4-methoxybenzoate] registered an IC50 in assay [3] greater than 100 µM.
The same measure, in the same setting: the value for `COc1cc(C(=O)Oc2ccc(Cl)c3cccnc23)cc(OC)c1OC` [compound 14, 5-chloro-8-quinolinyl 3,4,5-trimethoxybenzoate] was greater than 100 µM; that for `COc1cc(OC)cc(C(=O)Oc2ccc(Cl)c3cccnc23)c1` [compound 15, 5-chloro-8-quinolinyl 3,5-dimethoxybenzoate] was greater than 100 µM; that for `COc1ccc(C(=O)Oc2ccc(Cl)c3cccnc23)cc1` [compound 16, 5-chloro-8-quinolinyl 4-methoxybenzoate] was greater than 100 µM.
Still for that read-out and setting: in the case of `Cc1ccc(C(=O)Oc2c(Cl)cc(Cl)c3cccnc23)cc1C` [compound 17, 5,7-dichloro-8-quinolinyl 3,4-dimethylbenzoate] it was greater than 100 µM; in that of `Cc1cccc(C(=O)Oc2ccc(Cl)c3cccnc23)c1` [compound 18, 5-chloro-8-quinolinyl 3-methylbenzoate], greater than 100 µM.

What is called IC50 is the concentration at which inhibition is half-maximal. A lower IC50 goes with greater potency in that assay.

Values taken from article doi:10.64898/2025.12.08.692997v2 (biorxiv, 2025).
